Assay: Selectivity ratio of Kd for full length Mycobacterium tuberculosis tRNA (guanine(37)-N1)-methyltransferase expressed in Escherichia coli BL21 (DE3) to Kd for Pseudomonas aeruginosa tRNA (guanine(37)-N1)-methyltransferase (Leu5 to Asp25 residues) expressed in Escherichia coli BL21 (DE3) Rosetta T1R cells

| Structure (SMILES) | Ratio |
| --- | --- |
| NC1CCN(Cc2ccc(CNC(=O)c3csc4nc[nH]c(=O)c34)cc2)CC1 | 100 to 300 |
| CCCCCCCCNCc1ccc(CNC(=O)c2csc3nc[nH]c(=O)c23)cc1 | 100 |
